Laboratory results reported in patent publication EP0147851B1, “Water soluble forms of polyene antibiotics, and process for preparing them” (priority 1983, dated 1985).
Read-outs that look alike come from different tables or passages of the source.

Tests used:
[1] = Solubility of Flavofungin in aqueous γ-CD solutions (spectrophotometric); type: physicochemical; settings: 4 % γ-CD versus water
Description: Der erste Beweis für die Wechselwirkung zwischen Flavofungin und γ-Cyclodextrin ist der beträchtliche Anstieg der Löslichkeit des Flavofungins in wäßrigen γ-Cyclodextrinlösungen. Zur Untersuchung der Löslichkeit wurden wäßrige γ-CD-Lösungen unterschiedlicher Konzentration hergestellt: die Lösungen enthielten 0, 1, 2, 3, 4, 5, 7,5 beziehungsweise 10 % γ-CD. Zu je 1 ml der Lösungen wurden 5 mg festes Flavofungin gegeben. Die Lösungen wurden bei 25 °C 3 Stunden lang intensiv geschüttelt.
Die Lösungen wurden klarfiltriert, dann wurde spektrophotometrisch die Menge des in Lösung gegangenen Flavofungins ermittelt. Die Messungen zeigten, daß sich das Flavofungin am besten in 4 % γ-CD enthaltenden wäßrigen Lösungen löst; unter den Bedingungen der Untersuchung können Konzentrationen von etwa 4 mg/ml erzielt werden. […] Eine weitere Erhöhung der γ-CD-Konzentration steigert die Löslichkeit des Flavofungins nicht weiter. Die Ergebnisse der Löslichkeitsuntersuchungen sind in der Tabelle 1 zusammengefaßt.
Die aus dem anfänglich linearen Abschnitt der bei 25 °C aufgenommenen Löslichkeitsisotherme berechnete scheinbare Stabilitätskonstante des Komplexes beträgt etwa 3230.
Die maximale Löslichkeit in 4 %iger γ-CD-Lösung wurde auch bei verschiedenen Temperaturen untersucht. Die Flavofunginkonzentration betrug bei 10 °C 3,3 mg/ml, bei 30 °C 4,1 mg/ml und bei 40 °C 3,8 mg/ml.

[2] = Heat and storage stability of the solid substances (spectrophotometric content); type: physicochemical; settings: 60 °C, 24 Stunden, not protected from light or air
Description: Zur Untersuchung der Wärmestabilität des Flavofungin-γ-CD-Komplexes wurden die Substanzen in 1 mm Schichtdicke auf Uhrgläsern ausgebreitet und weder vor Licht noch vor Luft geschützt bei Raumtemperatur beziehungsweise bei 60 °C im Trockenschrank gelagert. Die zu unterschiedlichen Zeitpunkten genommenen Proben wurden spektrophotometrisch analysiert.
Der Wirkstoffgehalt des Flavofungin-γ-CD-Komplexes blieb jedoch auch nach 50 Tagen zu etwa 75 % erhalten. Ein 10 % Flavofungin enthaltendes, mit Glucose bereitetes physikalisches Gemisch verlor bei 14tägiger Lagerung bei Raumtemperatur 50 % seines Wirkstoffgehaltes. Der Wirkstoffgehalt des Komplexes war jedoch auch nach 50 Tagen noch zu mehr als 95 % erhalten. Die in einem verschlossenen Gefäß bei +4 °C 7 Monate lang gelagerte Probe zeigte keinen Verlust an Wirkstoff. Die Meßergebnisse sind in der Tabelle 4 zusammengestellt.
(§1) Auch mit diesem Produkt wird die im Beispiel 1 beschriebene Untersuchung der Wärmestabilität vorgenommen. Dabei wurde gefunden, daß der Komplex, ähnlich wie der lyophilisierte Komplex, eine erhöhte Wärmestabilität zeigt und seine antifungale Wirkung nicht geringer wird.

[3] = test system: S. oerevisiae, C. albicans, C. crusei und C. pseudotropicals; assay: Microbiological potency after storage (MIC); type: cell-based; settings: sample stored under nitrogen in the freezer
Description: Auch die mikrobiologische Wertmessung bestätigte, daß das Flavofungin in Form des γ-CD-Komplexes viel stabiler ist. Flavofungin-γ-CD-Komplex wurde bei Raumtemperatur und bei 60°C gelagert, und danach war die antifungale Wirkung genau so groß wie ursprünglich.
as §1

[4] = Raumtemperatur an der Luft, innerhalb von zwei Wochen; cited from earlier work
[5] = Solubility of Amphotericin B in aqueous γ-CD solutions (spectrophotometric); type: physicochemical; settings: for Amphotericin B Konzentration: 37 °C, 2 Stunden geschüttelt
Description: Das ist ein weiterer Beweis dafür, daß das Amphotericin in den γ-CD-haltigen wäßrigen Lösungen in molekular disperser Form vorliegt.
Auch für Amphotericin B wurde die Löslichkeit als Funktion der γ-CD-Konzentration ermittelt. Zu wäßrigen γ-CD-Lösungen unterschiedlicher Konzentration (0, 2, 4, 5, 6, 8, 10 beziehungsweise 12 %) wurden 5 mg/ml Amphotericin B gegeben, und die bei 37 °C thermostatisierten Lösungen wurden 2 Stunden lang intensiv geschüttelt. Die Lösungen wurden klarfiltriert, und die Menge des in Lösung gegangenen Amphotericin B wurde spektrophotometrisch bestimmt. Die Ergebnisse sind in der Tabelle 3 zusammengestellt.

[6] = test system: aus menschlichem Blut hergestellten Suspensionen roter Blutkörperchen; settings: human
Description: Dyn. 6, 408-414 [1983]) untersucht. Die Ergebnisse werden in Form der zu 50 %iger Hämolyse gehörenden Konzentrationen (EH₅₀) angegeben. […] Auch die hämolytische Wirkung einer der im Komplex gebundenen γ-CD-Menge entsprechenden Menge γ-Cyclodextrin wurde untersucht.

[7] = test system: aus menschlichem Blut hergestellten Suspensionen roter Blutkörperchen; settings: cited from earlier work
Mäusen = settings: i.p. an Mäusen; cited from earlier work
Weibliche CFY-Ratten = assay: Mortality after subcutaneous administration in rats; type: in vivo; settings: subcutan, 302 mg/kg, 10 Tiere, observation one week
Description: • a) Die Resorption von Nystatin aus per os verabreichtem Nystatin-γ-CD-Komplex Die Resorption des Wirkstoffes wurde an Mäusen, an einem durch intravenöse Applikation einer Suspension von Candida albicans hervorgerufenen Sepsismodell untersucht. Die Sepsis verursachte innerhalb von 2-3 Tagen 100 %ige Mortalität. Den Versuchstieren wurde per os gemäß Beispiel 3 hergestellte, 8 % Nystatin enthaltende Komplex verabreicht. In einem Parallelversuch wurde Nystatin intravenös appliziert. Für beide Gruppen wurde die auf die unbehandelte Kontrolle bezogene Verlängerung der Überlebensdauer ermittelt. [formula] Wenn man diejenigen in Form des Komplexes per os verabreichten Nystatindosen mit denjenigen i.v. applizierten Nystatindosen vergleicht, die eine etwa gleiche Verlängerung der Überlebensdauer bewirkten (Tabelle 9, letzte Spalte),so läßt sich errechnen, daß aus dem Komplex durchschnittlich 6,2 % des Wirkstoffes in die Blutbahn gelangten. Bei den höchsten Dosen (i.v. 1,56 mg/kg, p.o. 25 mg/kg) ist das Zurückfallen der Überlebensdauer bereits auf die schwache Toxizität des Nystatins zurückzuführen. • b) Die Resorption von Nystatin aus subcutan appliziertem Nystatin-γ-CD-Komplex Weibliche CFY-Ratten eines durchschnittlichen Gewichtes von 180 g wurden mit Nystatin, mit Nystatin-γ-CD-Komplex (Wirkstoffgehalt9 8 %) beziehungsweise mit γ-CD behandelt. […]

Flavofungin
Anstieg der Löslichkeit [1]: etwa das Achtzigfache | Zersetzung of the solid [2]: starke Zersetzung | MIC [3]: 25 µg/mL | Verlust der Aktivität [4]: 50%

C[C@@H]1[C@H](O)[C@@H](C)/C=C/C=C/C=C/C=C/C=C/C=C/C=C/[C@H](O[C@@H]2O[C@H](C)[C@@H](O)[C@H](N)[C@@H]2O)C[C@@H]2O[C@](O)(C[C@@H](O)C[C@@H](O)[C@H](O)CC[C@@H](O)C[C@@H](O)CC(=O)O[C@H]1C)C[C@H](O)[C@H]2C(=O)O [Amphotericin B]
Löslichkeit relative to Löslichkeit in Wasser ([5]; 5 %ige γ-CD-Lösung): etwa das Hundertfache | Löslichkeit relative to Löslichkeit in Wasser ([5]; 10 %ige γ-CD-Lösung): etwa das Zweihundertfache | Löslichkeit in γ-CD-haltigen Lösungen on addition of salt ([5]; Zusatz von 0,9 Gew.-% Kochsalz): nicht verändert | Amphotericin B Konzentration ([5]; γ-CD-Konzentration 0 %): 0,003 mg/ml | Amphotericin B Konzentration ([5]; γ-CD-Konzentration 2 %): 0,12 mg/ml | Amphotericin B Konzentration ([5]; γ-CD-Konzentration 4 %): 0,25 mg/ml | Amphotericin B Konzentration ([5]; γ-CD-Konzentration 5 %): 0,30 mg/ml | Amphotericin B Konzentration ([5]; γ-CD-Konzentration 6 %): 0,36 mg/ml | Amphotericin B Konzentration ([5]; γ-CD-Konzentration 8 %): 0,51 mg/ml | Amphotericin B Konzentration ([5]; γ-CD-Konzentration 10 %): 0,65 mg/ml | Amphotericin B Konzentration ([5]; γ-CD-Konzentration 12 %): 0,65 mg/ml | EH₅₀ (concentration for 50 % haemolysis) [6]: 4,8 µg/ml | Hämolyse ([6]; 25 µg/ml): 92,4% | EH₅₀ (concentration for 50 % haemolysis) [7]: 5 µg/mL

Methylester von Amphotericin B
LD₅₀ (Mäusen): 1320 mg/kg

OC[C@H]1O[C@@H]2O[C@H]3[C@H](O)[C@@H](O)[C@@H](O[C@H]4[C@H](O)[C@@H](O)[C@@H](O[C@H]5[C@H](O)[C@@H](O)[C@@H](O[C@H]6[C@H](O)[C@@H](O)[C@@H](O[C@H]7[C@H](O)[C@@H](O)[C@@H](O[C@H]8[C@H](O)[C@@H](O)[C@@H](O[C@H]9[C@H](O)[C@@H](O)[C@@H](O[C@H]1[C@H](O)[C@H]2O)O[C@@H]9CO)O[C@@H]8CO)O[C@@H]7CO)O[C@@H]6CO)O[C@@H]5CO)O[C@@H]4CO)O[C@@H]3CO [γ-CD, γ-Cyclodextrin]
Mortalität (animals that died) (Weibliche CFY-Ratten): kein einziges
